Measurements from patent US11401271B2, “Fused heterocyclic compound, pyrazole-ring-containing fused heterocyclic compound, agricultural composition containing thereof, and method of using the composition” (SOUTH CHINA AGRICULTURAL UNIVERSITY, priority 2017, dated 2022).

Legend:
Assay in all cases: whole plant or invertebrate
Format in all cases: in vivo
Plutella xylostella = conditions: 500 ppm; 2nd-instar larvae, leaf immersion feeding
Summary of the method: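 Cabbage leaf discs dipped 5 s in compound at 500 ppm (0.05% Tween-80 aqueous), air-dried, fed to about 35 2nd-instar larvae at 28° C., triplicate. Dead larvae counted after 24 h; mortality (%) corrected against Tween-80 control.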

Spodoptera exigua = conditions: 500 ppm; 2nd-instar larvae, leaf immersion feeding
Summary of the method: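 Cabbage leaf discs dipped 5 s in 500 ppm compound (0.05% Tween-80 aqueous), air-dried, fed to about 35 2nd-instar larvae at 28° C, three replicates. Deaths counted at 24 h; mortality corrected against Tween-80 control.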

Aphis craccivora = conditions: 500 ppm; wingless adults, immersion 5 seconds, counted after 24 hours
Summary of the method: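 Wingless adults feeding on bean sprouts were dipped with the sprouts for 5 s in 500 ppm compound in aqueous 0.05% Tween-80, air-dried, then held at 23° C. Dead aphids counted after 24 h, triplicate, with 0.05% Tween-80 as control. Mortality (%) = (control live − treated live)/control live × 100.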

Solenopsis invicta = conditions: 100 ppm, water test tube poison-feeding
Summary of the method: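 Fire ants fed compound by water test-tube poison-feeding at 100 ppm in aqueous 0.05% Tween-80/5% honey (from 10 g/L DMSO stock), kept at 25 °C. Live and dead ants counted at 24 and 72 h; mortality (%) calculated relative to live ants in the untreated control.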

| Compound | Plutella xylostella Mortality (%) (Plutella xylostella) | Spodoptera exigua Mortality (%) (Spodoptera exigua) | Aphis craccivora Mortality (%) (Aphis craccivora) | Solenopsis invicta Mortality (%) 24 h (Solenopsis invicta) [%] | Solenopsis invicta Mortality (%) 72 h (Solenopsis invicta) [%] |
| --- | --- | --- | --- | --- | --- |
| COC(=O)CC1(C(=O)OC)Nc2c([S+](C)[O-])c(C#N)nn2-c2c(Cl)cc(C(F)(F)F)cc21 (stereo not drawn) [d-13] | 82 | 81 | 99 | 26 | 89 |
| CC[S+]([O-])c1c(C#N)nn2c1NC(CC(=O)OC)(C(=O)OC)c1cc(C(F)(F)F)cc(Cl)c1-2 (stereo not drawn) [d-14] | 90 | 89 | 100 | 24 | 100 |
| COC(=O)C1(CC(N)=O)Nc2c([S+]([O-])C(F)(F)F)c(C#N)nn2-c2c(Cl)cc(C(F)(F)F)cc21 (stereo not drawn) [d-20] | 100 | 100 | 100 | 14 | 100 |
| COC(=O)C1(CC(=O)OCC(F)(F)F)Nc2c([S+]([O-])C(F)(F)F)c(C#N)nn2-c2c(Cl)cc(C(F)(F)F)cc21 (stereo not drawn) [d-27] | 100 | 100 | 100 | 14 | 100 |
| COC(=O)C1(CC(C)=O)Nc2c([S+]([O-])C(F)(F)F)c(C#N)nn2-c2c(Cl)cc(C(F)(F)F)cc21 (stereo not drawn) [d-33] | 100 | 99 | 100 | 26 | 100 |
| COC(=O)C1(CBr)Nc2c([S+]([O-])C(F)(F)F)c(C#N)nn2-c2c(Cl)cc(C(F)(F)F)cc21 (stereo not drawn) [d-34] | 90 | 95 | 100 | 25 | 93 |
| COC(=O)C1(CC(F)(F)F)Nc2c([S+]([O-])C(F)(F)F)c(C#N)nn2-c2c(Cl)cc(C(F)(F)F)cc21 (stereo not drawn) [d-35] | 90 | 89 | 100 | 30 | 100 |
| CCOC(=O)C1(CC(=O)OC(C(F)(F)F)C(F)(F)F)Nc2c([S+]([O-])C(F)(F)F)c(C#N)nn2-c2c(Cl)cc(C(F)(F)F)cc21 (stereo not drawn) [d-42] | 100 | 100 | 100 | 31 | 100 |
| CC(=O)CC1(C(C)=O)Nc2c([S+]([O-])C(F)(F)F)c(C#N)nn2-c2c(Cl)cc(C(F)(F)F)cc21 (stereo not drawn) [d-46] | 95 | 90 | 100 | 14 | 90 |
| CC(=O)C1(CC(F)(F)F)Nc2c([S+]([O-])C(F)(F)F)c(C#N)nn2-c2c(Cl)cc(C(F)(F)F)cc21 (stereo not drawn) [d-48] | 96 | 90 | 100 | 26 | 100 |
| CC(=O)C1(CC(=O)C(F)(F)F)Nc2c([S+]([O-])C(F)(F)F)c(C#N)nn2-c2c(Cl)cc(C(F)(F)F)cc21 (stereo not drawn) [d-49] | 100 | 100 | 100 | 29 | 100 |
| N#Cc1nn2c(c1[S+]([O-])C(F)(F)F)NC(CC(=O)C(F)(F)F)(C(=O)C(F)(F)F)c1cc(C(F)(F)F)cc(Cl)c1-2 (stereo not drawn) [d-50] | 100 | 90 | 100 | 26 | 93 |
| N#Cc1nn2c(c1[S+]([O-])C(F)(F)F)NC(Cc1ccccc1)(C(=O)C(F)(F)F)c1cc(C(F)(F)F)cc(Cl)c1-2 (stereo not drawn) [d-52] | 100 | 100 | 100 | 24 | 100 |
| COC(=O)CC1(C(=O)C(F)(F)F)Nc2c([S+]([O-])C(F)(F)F)c(C#N)nn2-c2c(Cl)cc(C(F)(F)F)cc21 (stereo not drawn) [d-54] | 100 | 99 | 100 | 21 | 99 |
| N#CCC1(Cl)Nc2c([S+]([O-])C(F)(F)F)c(C#N)nn2-c2c(Cl)cc(C(F)(F)F)cc21 (stereo not drawn) [d-60] | 96 | 90 | 90 | 24 | 90 |
| N#Cc1nn2c(c1[S+]([O-])C(F)(F)F)NC(Br)(CC(=O)C(F)(F)F)c1cc(C(F)(F)F)cc(Cl)c1-2 (stereo not drawn) [d-63] | 100 | 95 | 100 | 20 | 90 |
| N#Cc1nn2c(c1[S+]([O-])C(F)(F)F)NC(C#N)(CC(F)(F)F)c1cc(C(F)(F)F)cc(Cl)c1-2 (stereo not drawn) [d-65] | 100 | 100 | 100 | 24 | 90 |
| COC(=O)CC1(C#N)Nc2c([S+]([O-])C(F)(F)F)c(C#N)nn2-c2c(Cl)cc(C(F)(F)F)cc21 (stereo not drawn) [d-67] | 100 | 90 | 100 | 41 | 99 |
| N#Cc1nn2c(c1[S+]([O-])C(F)(F)F)NC(CC(F)(F)F)(C(F)(F)F)c1cc(C(F)(F)F)cc(Cl)c1-2 (stereo not drawn) [d-69] | 90 | 86 | 100 | 44 | 100 |
| N#CCC1(C(F)(F)F)Nc2c([S+]([O-])C(F)(F)F)c(C#N)nn2-c2c(Cl)cc(C(F)(F)F)cc21 (stereo not drawn) [d-70] | 91 | 90 | 99 | 20 | 98 |
| CCCCOC(=O)CC1(C(=O)OCCCC)Nc2c([S+]([O-])C(F)(F)F)c(C#N)nn2-c2c(Cl)cc(C(F)(F)F)cc21 (stereo not drawn) [d-72] | 90 | 85 | 99 | 26 | 76 |
| N#Cc1nn2c(c1[S+]([O-])C(F)(F)F)NC(C(=O)C(F)(F)F)c1cc(C(F)(F)F)cc(Cl)c1-2 (stereo not drawn) [d-81] | 99 | 90 | 100 | 35 | 100 |
| N#Cc1nn2c(c1[S+]([O-])C(F)(F)F)NC(C#N)c1cc(C(F)(F)F)cc(Cl)c1-2 (stereo not drawn) [d-82] | 95 | 89 | 100 | 25 | 90 |
| N#Cc1nn2c(c1[S+]([O-])C(F)(F)F)NC(CC(F)(F)F)c1cc(C(F)(F)F)cc(Cl)c1-2 (stereo not drawn) [d-85] | 100 | 100 | 100 | 30 | 100 |
| N#Cc1nn2c(c1[S+]([O-])C(F)(F)F)NC(Cl)c1cc(C(F)(F)F)cc(Cl)c1-2 (stereo not drawn) [d-90] | 82 | 80 | 90 | 16 | 85 |
| COC(=O)CC1Nc2c([S+]([O-])C(F)(F)F)c(C(F)(F)F)nn2-c2c(Cl)cc(C(F)(F)F)cc21 (stereo not drawn) [d-98] | 100 | 100 | 100 | 20 | 99 |
| O=C(CC1Nc2c([S+]([O-])C(F)(F)F)c(C(F)(F)F)nn2-c2c(Cl)cc(C(F)(F)F)cc21)C(F)(F)F (stereo not drawn) [d-103] | 100 | 98 | 100 | 26 | 93 |
| [O-][S+](c1c(C(F)(F)F)nn2c1NC(C(F)(F)F)c1cc(C(F)(F)F)cc(Cl)c1-2)C(F)(F)F (stereo not drawn) [d-107] | 100 | 100 | 100 | 24 | 100 |
